≈ marks a conversion by molar mass, not a printed value. Where “and” joins values, the source holds several entries; their conditions need not be identical. Identical values can stand only once.

The text below walks through data of DBAASP.

Some test systems named below: Escherichia coli MC1041; Escherichia coli JJ2489; Escherichia coli J2210; Escherichia coli; Escherichia coli JW0013; Escherichia coli JJ2487; Escherichia coli O157:H7; Escherichia coli MC1061; Escherichia coli K88; Escherichia coli K99; Escherichia coli 078; Escherichia coli UB1005.
Common to all, as to experiment: ≥ marks a high value that may be exact or a test limit, other limits are often not marked, values filed in µg/mL are converted to µM
Experiment [1] relates to Salmonella enterica subsp. enterica serovar Newport.
Experiment [2] has as its system Escherichia coli JW2778 ΔygdD.
Experiment [3] concerns Salmonella enterica serovar Tennessee.
In experiment [4] the test system is Salmonella enterica subsp. enterica serovar Enteritidis MH91989.
In experiment [5] the test system is Salmonella enterica subsp. enterica serovar Infantis.
The subject of experiment [6] is Salmonella typhimurium SL1344.
Experiment [7] concerns Escherichia coli JW0368 ΔsbmA.
Experiment [8] deals with Pseudomonas aeruginosa MTCC 3542.
For experiment [9], the system named is Alcaligenes faecalis MTCC 1937.
Experiment [10] has as its system Salmonella enterica MTCC 9844.
The subject of experiment [11] is Stenotrophomonas maltophilia MTCC 1890.
The subject of experiment [12] is Proteus mirabilis MTCC 3158.
The test system of experiment [13] is Vibrio cholerae MTCC 3904.
The test system of experiment [14] is Shigella boydii MTCC 11947.
For experiment [15], the system named is Citrobacter freundii MTCC 1658.
Experiment [16] relates to Corynebacterium glutamicum MTCC 2679.
Experiment [17] deals with Enterococcus faecalis MTCC 439.
In experiment [18] the test system is Shigella flexneri MTCC 1457.
The subject of experiment [19] is Klebsiella oxytoca MTCC 2275.
Experiment [20] has as its system Acinetobacter baumannii MTCC 9829.
In experiment [21] the test system is Klebsiella aerogenes MTCC 111.
Experiment [22] has as its system Citrobacter koseri MTCC 1657.
Experiment [23] has as its system Staphylococcus haemolyticus MTCC 3383.
Experiment [24] has as its system Bordetella bronchiseptica MTCC 6837.
Experiment [25] concerns Proteus vulgaris MTCC 1771.
For experiment [26], the system named is Pluralibacter gergoviae MTCC 3826.
Experiment [27] has as its system Staphylococcus aureus MTCC 3160.
In experiment [28] the test system is Salmonella enterica subsp. enterica serovar Typhimurium ATCC 14028.
Experiment [29] concerns Alkalihalobacillus alcalophilus MTCC 860.
For experiment [30], the system named is Klebsiella pneumoniae MTCC 7407.
The test system of experiment [31] is Escherichia coli K12 MG1655.
Experiment [32] has as its system Haemophilus influenzae MTCC 621.
The subject of experiment [33] is Salmonella enterica subsp. enterica serovar Pullorum ATCC 7913.
Experiment [34] concerns Staphylococcus epidermidis ATCC 12228.
The subject of experiment [35] is Candida albicans CGMCC 2.2086.
The subject of experiment [36] is Staphylococcus aureus ATCC 25923.
The subject of experiment [37] is Candida tropicalis CGMCC 2.1975.
Experiment [38] concerns Pseudomonas aeruginosa ATCC 27853.
Experiment [39] has as its system Salmonella enterica subsp. enterica serovar Typhimurium C77-31.
The test system of experiment [40] is Staphylococcus aureus ATCC 43300.
For experiment [41], the system named is Candida parapsilosis CGMCC 2.3989.

As for `CC[C@H](C)[C@H](NC(=O)[C@@H]1CCCN1C(=O)[C@H](CCCCN)NC(=O)[C@@H]1CCCN1C(=O)[C@@H]1CCCN1C(=O)[C@@H](NC(=O)[C@@H]1CCCN1C(=O)[C@H](CCCN=C(N)N)NC(=O)[C@@H]1CCCN1C(=O)[C@H](CCCN=C(N)N)NC(=O)[C@H](Cc1ccc(O)cc1)NC(=O)[C@H](CO)NC(=O)CNC(=O)[C@H](CCCCN)NC(=O)[C@H](CC(=O)O)NC(=O)[C@@H](N)C(C)C)[C@@H](C)O)C(=O)N[C@@H](Cc1ccc(O)cc1)C(=O)N[C@@H](CC(N)=O)C(=O)N[C@@H](CCCN=C(N)N)C(=O)N[C@@H](CC(N)=O)C(=O)O` [VDKGSYRPRPTPPKPIYNRN], the MIC in experiment [1] amounted to 0.037 µM (≈ 0.0872 µg/mL); in [2] it was 0.104 µM (≈ 0.245 µg/mL); in [3], 0.075 µM (≈ 0.177 µg/mL); against Escherichia coli MC1041 it was 0.075 µM (≈ 0.177 µg/mL); in experiment [4], 0.15 µM (≈ 0.353 µg/mL); in experiment [5], 0.098 µM (≈ 0.231 µg/mL). In addition, the MIC is 0.075 µM (≈ 0.177 µg/mL) in experiment [6]; 0.078 µM (≈ 0.184 µg/mL) against Escherichia coli JJ2489; 0.3 µM (≈ 0.707 µg/mL) in experiment [7]; 0.075 µM (≈ 0.177 µg/mL) in the experiment on Escherichia coli J2210; 0.15 µM and 0.208 µM in the experiment with Escherichia coli; 0.037 µM (≈ 0.0872 µg/mL) against Escherichia coli JW0013.
Regarding `CC[C@H](C)[C@H](NC(=O)[C@H](CCCN=C(N)N)NC(=O)[C@H](CCCN=C(N)N)NC(=O)[C@@H]1CCCN1C(=O)[C@@H]1CCCN1C(=O)[C@H](CCCN=C(N)N)NC(=O)[C@@H]1CCCN1C(=O)[C@H](CCCN=C(N)N)NC(=O)[C@@H]1CCCN1C(=O)[C@H](CCCN=C(N)N)NC(=O)[C@H](Cc1ccc(O)cc1)NC(=O)[C@@H]1CCCN1C(=O)[C@@H]1CCCN1C(=O)[C@H](CCCCN)NC(=O)[C@H](CC(=O)O)NC(=O)[C@@H](N)C(C)C)C(=O)N[C@@H](Cc1ccc(O)cc1)C(=O)N[C@@H](CC(N)=O)C(=O)N[C@@H](CCCN=C(N)N)C(N)=O` [VDKPPYRPRPRPPRRIYNR], the MIC against Escherichia coli JJ2487 is 0.16 µM (≈ 0.39 µg/mL); against Escherichia coli O157:H7, 0.986 µM (≈ 2.4 µg/mL); in experiment [4], 0.246 µM (≈ 0.6 µg/mL); in [6], 0.173 µM (≈ 0.42 µg/mL); against Escherichia coli MC1061, 0.0822 µM (≈ 0.2 µg/mL); with Escherichia coli J2210, 0.16 µM (≈ 0.39 µg/mL). The same compound returned an MIC in the experiment on Escherichia coli JW0013 of 0.173 µM (≈ 0.42 µg/mL).
As for `CC[C@H](C)[C@H](NC(=O)[C@H](C)NC(=O)[C@H](CCCCN)NC(=O)[C@@H](N)CCC(=O)O)C(=O)N[C@@H](CC(C)C)C(=O)N[C@@H](CO)C(=O)N[C@@H](C)C(=O)N[C@@H](CC(C)C)C(=O)N[C@@H](CCCCN)C(=O)N[C@@H](CC(C)C)C(=O)N[C@@H](CC(C)C)C(=O)N[C@@H](CCCN=C(N)N)C(=O)N[C@@H](CC(C)C)C(=O)N[C@@H](C)C(=O)N[C@@H](CC(C)C)C(=O)O` [EKAILSALKLLRLAL], the MIC in [8], in experiment [9], in experiment [10], in experiment [11], in experiment [12] and in experiment [13] was at least 77.5 µM in each case. The MIC in [14] was at least 77.5 µM; in experiment [15], at least 77.5 µM; in experiment [16], 19.4 µM (≈ 32 µg/mL); in experiment [17] it was at least 77.5 µM; in experiment [18] it was at least 77.5 µM; in experiment [19] it was at least 77.5 µM. The MIC was at least 77.5 µM in experiment [20]; at least 77.5 µM in experiment [21]; at least 77.5 µM in experiment [22]; at least 77.5 µM in experiment [23]; at least 38.7 µM in experiment [24]; at least 77.5 µM in [25]. The MIC is at least 77.5 µM in experiment [26]; at least 77.5 µM in [27]; above 77.5 µM in [28]; at least 38.7 µM in experiment [29]; at least 77.5 µM in experiment [30]; at least 77.5 µM in experiment [31]. The MIC in experiment [32] came to 9.68 µM (≈ 16 µg/mL).
As to `CC[C@H](C)[C@H](NC(=O)[C@H](CCCN=C(N)N)NC(=O)[C@H](C)NC(=O)[C@H](C)N)C(=O)N[C@H](C(=O)N[C@@H](CC(C)C)C(=O)N[C@@H](CCCN=C(N)N)C(=O)NCC(=O)N[C@@H](CCCN=C(N)N)C(=O)N[C@@H](Cc1ccccc1)C(=O)N[C@@H](CCCN=C(N)N)C(N)=O)[C@@H](C)CC` [AARIILRGRFR], the MIC in experiment [33] was 4 µM (≈ 5.31 µg/mL); in experiment [34] it was 8 µM (≈ 10.6 µg/mL); in experiment [35], at least 128 µM; in experiment [36] it was 16 µM (≈ 21.2 µg/mL); in [37] it was 16 µM (≈ 21.2 µg/mL); against Escherichia coli K88, 2 µM (≈ 2.66 µg/mL). For the same compound, the MIC was 2 µM (≈ 2.66 µg/mL) against Escherichia coli K99; 16 µM (≈ 21.2 µg/mL) in [38]; 4 µM (≈ 5.31 µg/mL) in the experiment on Escherichia coli 078; 8 µM (≈ 10.6 µg/mL) in [39]; 8 µM (≈ 10.6 µg/mL) in experiment [40]; at least 64 µM in [41]. For the same compound, the MIC (against Escherichia coli UB1005; in [28]) was 4 µM (≈ 5.31 µg/mL) each time.
